PubChem BioAssay (NCI)
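Cultured in 96-well plates, cells were exposed to test compound for 48 hours across five concentrations. TGI marks complete inhibition of growth.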

Columns and labels:
Test in all cases: NCI tumour cell line growth inhibition, 48 h
RPMI-8226 leukemia = tested on: RPMI-8226 leukemia
DLD-1 colon = tested on: DLD-1 colon
HT29 colon = tested on: HT29 colon
HCC-2998 colon = tested on: HCC-2998 colon
NCI-H23 lung = tested on: NCI-H23 lung
A549 NSCLC = tested on: A549 NSCLC
KM12 colon = tested on: KM12 colon
SK-MEL-2 melanoma = tested on: SK-MEL-2 melanoma
HCT-15 colon = tested on: HCT-15 colon
OVCAR-3 ovarian = tested on: OVCAR-3 ovarian
LOX IMVI melanoma = tested on: LOX IMVI melanoma
IGROV1 ovarian = tested on: IGROV1 ovarian
UO-31 renal = tested on: UO-31 renal
UACC-257 melanoma = tested on: UACC-257 melanoma
CCRF-CEM leukemia = tested on: CCRF-CEM leukemia
KM20L2 colon = tested on: KM20L2 colon
MALME-3M melanoma = tested on: MALME-3M melanoma
SW-620 colon = tested on: SW-620 colon
RXF 393 renal = tested on: RXF 393 renal
NCI-H460 lung = tested on: NCI-H460 lung
SN12C renal = tested on: SN12C renal
HCT-116 colon = tested on: HCT-116 colon
HOP-92 NSCLC = tested on: HOP-92 NSCLC
COLO 205 colon = tested on: COLO 205 colon
NCI-H522 lung = tested on: NCI-H522 lung
SN12K1 renal = tested on: SN12K1 renal
HL-60(TB) leukemia = tested on: HL-60(TB) leukemia
SK-OV-3 ovarian = tested on: SK-OV-3 ovarian
SK-MEL-28 melanoma = tested on: SK-MEL-28 melanoma
SNB-19 CNS = tested on: SNB-19 CNS
P388 leukemia = tested on: P388 leukemia
DMS 273 small cell lung = tested on: DMS 273 small cell lung
M19-MEL melanoma = tested on: M19-MEL melanoma
HOP-18 NSCLC = tested on: HOP-18 NSCLC
U251 CNS = tested on: U251 CNS
P388/ADR leukemia = tested on: P388/ADR leukemia
SNB-78 CNS = tested on: SNB-78 CNS
NCI/ADR-RES ovarian = tested on: NCI/ADR-RES ovarian
SNB-75 CNS = tested on: SNB-75 CNS
HOP-62 NSCLC = tested on: HOP-62 NSCLC
OVCAR-4 ovarian = tested on: OVCAR-4 ovarian
SK-MEL-5 melanoma = tested on: SK-MEL-5 melanoma
OVCAR-5 ovarian = tested on: OVCAR-5 ovarian
OVCAR-8 ovarian = tested on: OVCAR-8 ovarian
MCF7 breast = tested on: MCF7 breast
A498 renal = tested on: A498 renal
MOLT-4 leukemia = tested on: MOLT-4 leukemia
SF-295 CNS = tested on: SF-295 CNS
SF-539 CNS = tested on: SF-539 CNS
K-562 leukemia = tested on: K-562 leukemia
LXFL 529 NSCLC = tested on: LXFL 529 NSCLC
EKVX NSCLC = tested on: EKVX NSCLC
786-0 renal = tested on: 786-0 renal
SR leukemia = tested on: SR leukemia
CAKI-1 renal = tested on: CAKI-1 renal
SF-268 CNS = tested on: SF-268 CNS
TK-10 renal = tested on: TK-10 renal
UACC-62 melanoma = tested on: UACC-62 melanoma
RXF-631 renal = tested on: RXF-631 renal
ACHN renal = tested on: ACHN renal
DMS 114 small cell lung = tested on: DMS 114 small cell lung
NCI-H226 lung = tested on: NCI-H226 lung
XF 498 CNS = tested on: XF 498 CNS
M14 melanoma = tested on: M14 melanoma

O=C(/C=C\c1ccc(/C=C/C(=O)Nc2cccc(C3=NCCCN3)c2)cc1)Nc1cccc(C2=NCCCN2)c1
TGI (RPMI-8226 leukemia): 76.3 µM | TGI (DLD-1 colon): > 100 µM | TGI (HT29 colon): > 100 µM | TGI (HCC-2998 colon): > 100 µM | TGI (NCI-H23 lung): > 100 µM | TGI (A549 NSCLC): > 100 µM | TGI (KM12 colon): > 100 µM | TGI (SK-MEL-2 melanoma): > 100 µM | TGI (HCT-15 colon): > 100 µM | TGI (OVCAR-3 ovarian): > 100 µM | TGI (LOX IMVI melanoma): > 100 µM | TGI (IGROV1 ovarian): > 100 µM | TGI (UO-31 renal): > 100 µM | TGI (UACC-257 melanoma): > 100 µM | TGI (CCRF-CEM leukemia): > 100 µM | TGI (KM20L2 colon): > 100 µM | TGI (MALME-3M melanoma): > 100 µM | TGI (SW-620 colon): > 100 µM | TGI (RXF 393 renal): > 100 µM | TGI (NCI-H460 lung): > 100 µM | TGI (SN12C renal): > 100 µM | TGI (HCT-116 colon): > 100 µM | TGI (HOP-92 NSCLC): > 100 µM | TGI (COLO 205 colon): > 100 µM | TGI (NCI-H522 lung): > 100 µM | TGI (SN12K1 renal): > 100 µM | TGI (HL-60(TB) leukemia): > 100 µM | TGI (SK-OV-3 ovarian): > 100 µM | TGI (SK-MEL-28 melanoma): > 100 µM | TGI (SNB-19 CNS): > 100 µM | TGI (P388 leukemia): > 100 µM | TGI (DMS 273 small cell lung): > 100 µM | TGI (M19-MEL melanoma): > 100 µM | TGI (HOP-18 NSCLC): > 100 µM | TGI (U251 CNS): > 100 µM | TGI (P388/ADR leukemia): > 100 µM | TGI (SNB-78 CNS): > 100 µM | TGI (NCI/ADR-RES ovarian): > 100 µM | TGI (SNB-75 CNS): > 100 µM | TGI (HOP-62 NSCLC): > 100 µM | TGI (OVCAR-4 ovarian): > 100 µM | TGI (SK-MEL-5 melanoma): > 83.5 µM | TGI (OVCAR-5 ovarian): > 100 µM | TGI (OVCAR-8 ovarian): > 100 µM | TGI (MCF7 breast): > 100 µM | TGI (A498 renal): > 100 µM | TGI (MOLT-4 leukemia): > 100 µM | TGI (SF-295 CNS): > 100 µM | TGI (SF-539 CNS): > 100 µM | TGI (K-562 leukemia): > 100 µM

Cc1c(C)c2ccc(OC(C)C(=O)O)cc2oc1=O (stereo not given)
TGI (RPMI-8226 leukemia): > 100 µM | TGI (DLD-1 colon): > 100 µM | TGI (LXFL 529 NSCLC): > 100 µM | TGI (HT29 colon): > 100 µM | TGI (HCC-2998 colon): > 100 µM | TGI (NCI-H23 lung): > 100 µM | TGI (EKVX NSCLC): > 100 µM | TGI (A549 NSCLC): > 100 µM | TGI (KM12 colon): > 100 µM | TGI (786-0 renal): > 100 µM | TGI (SR leukemia): > 100 µM | TGI (OVCAR-3 ovarian): > 100 µM | TGI (LOX IMVI melanoma): > 100 µM | TGI (IGROV1 ovarian): > 100 µM | TGI (CAKI-1 renal): > 100 µM | TGI (UO-31 renal): > 100 µM | TGI (UACC-257 melanoma): > 100 µM | TGI (CCRF-CEM leukemia): > 100 µM | TGI (KM20L2 colon): > 100 µM | TGI (MALME-3M melanoma): > 100 µM | TGI (SW-620 colon): > 100 µM | TGI (RXF 393 renal): > 100 µM | TGI (SF-268 CNS): > 100 µM | TGI (NCI-H460 lung): > 100 µM | TGI (SN12C renal): > 100 µM | TGI (HCT-116 colon): > 100 µM | TGI (HOP-92 NSCLC): > 100 µM | TGI (COLO 205 colon): > 100 µM | TGI (TK-10 renal): > 100 µM | TGI (NCI-H522 lung): > 100 µM | TGI (UACC-62 melanoma): > 100 µM | TGI (HL-60(TB) leukemia): > 100 µM | TGI (SK-OV-3 ovarian): > 100 µM | TGI (SK-MEL-28 melanoma): > 100 µM | TGI (SNB-19 CNS): > 100 µM | TGI (RXF-631 renal): > 100 µM | TGI (M19-MEL melanoma): > 100 µM | TGI (HOP-18 NSCLC): > 100 µM | TGI (ACHN renal): > 100 µM | TGI (DMS 114 small cell lung): > 100 µM | TGI (U251 CNS): > 100 µM | TGI (SNB-78 CNS): > 100 µM | TGI (SNB-75 CNS): > 100 µM | TGI (NCI-H226 lung): > 100 µM | TGI (HOP-62 NSCLC): > 100 µM | TGI (XF 498 CNS): 99 µM | TGI (OVCAR-4 ovarian): > 100 µM | TGI (SK-MEL-5 melanoma): > 100 µM | TGI (OVCAR-8 ovarian): > 100 µM | TGI (M14 melanoma): > 100 µM | TGI (A498 renal): > 100 µM | TGI (MOLT-4 leukemia): > 100 µM | TGI (SF-295 CNS): > 100 µM | TGI (SF-539 CNS): > 100 µM | TGI (K-562 leukemia): > 100 µM
